For the experiment, the target named is T1, BRM (Homo sapiens, UniProt P51531).
T1 construct: Western Blot Screen of BRM Degradation in SW1573 Cells; endogenous in cells; host or cells: SW1573 cells
Briefly: BRM degradation (Dmax and DC50) in SW1573 cells, Western blot screen / In-Cell Western screen. The experiment is classed as cell-based. The settings on record: overnight (18-20 hours) treatment; for Dmax: read-out: Dmax (%)** (% degraded). An outline of the steps:
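SW1573 cells were treated with compound for 18–20 h (final 0.1% DMSO). BRM was quantified either by Western blot of RIPA lysates or by fixed-cell In-Cell Western (LI-COR, 800/680 nm), each normalised to alpha-tubulin, giving Dmax and DC50.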
(In general: In western blotting, separated proteins are transferred to a membrane and probed.)

12 molecules from US20250059198A1, “BRM DEGRADING COMPOUNDS AND ASSOCIATED METHODS OF USE” (Arvinas Operations, Inc., priority 2021, published 2025) can be followed below.

T1 sequence (P51531 whole entry): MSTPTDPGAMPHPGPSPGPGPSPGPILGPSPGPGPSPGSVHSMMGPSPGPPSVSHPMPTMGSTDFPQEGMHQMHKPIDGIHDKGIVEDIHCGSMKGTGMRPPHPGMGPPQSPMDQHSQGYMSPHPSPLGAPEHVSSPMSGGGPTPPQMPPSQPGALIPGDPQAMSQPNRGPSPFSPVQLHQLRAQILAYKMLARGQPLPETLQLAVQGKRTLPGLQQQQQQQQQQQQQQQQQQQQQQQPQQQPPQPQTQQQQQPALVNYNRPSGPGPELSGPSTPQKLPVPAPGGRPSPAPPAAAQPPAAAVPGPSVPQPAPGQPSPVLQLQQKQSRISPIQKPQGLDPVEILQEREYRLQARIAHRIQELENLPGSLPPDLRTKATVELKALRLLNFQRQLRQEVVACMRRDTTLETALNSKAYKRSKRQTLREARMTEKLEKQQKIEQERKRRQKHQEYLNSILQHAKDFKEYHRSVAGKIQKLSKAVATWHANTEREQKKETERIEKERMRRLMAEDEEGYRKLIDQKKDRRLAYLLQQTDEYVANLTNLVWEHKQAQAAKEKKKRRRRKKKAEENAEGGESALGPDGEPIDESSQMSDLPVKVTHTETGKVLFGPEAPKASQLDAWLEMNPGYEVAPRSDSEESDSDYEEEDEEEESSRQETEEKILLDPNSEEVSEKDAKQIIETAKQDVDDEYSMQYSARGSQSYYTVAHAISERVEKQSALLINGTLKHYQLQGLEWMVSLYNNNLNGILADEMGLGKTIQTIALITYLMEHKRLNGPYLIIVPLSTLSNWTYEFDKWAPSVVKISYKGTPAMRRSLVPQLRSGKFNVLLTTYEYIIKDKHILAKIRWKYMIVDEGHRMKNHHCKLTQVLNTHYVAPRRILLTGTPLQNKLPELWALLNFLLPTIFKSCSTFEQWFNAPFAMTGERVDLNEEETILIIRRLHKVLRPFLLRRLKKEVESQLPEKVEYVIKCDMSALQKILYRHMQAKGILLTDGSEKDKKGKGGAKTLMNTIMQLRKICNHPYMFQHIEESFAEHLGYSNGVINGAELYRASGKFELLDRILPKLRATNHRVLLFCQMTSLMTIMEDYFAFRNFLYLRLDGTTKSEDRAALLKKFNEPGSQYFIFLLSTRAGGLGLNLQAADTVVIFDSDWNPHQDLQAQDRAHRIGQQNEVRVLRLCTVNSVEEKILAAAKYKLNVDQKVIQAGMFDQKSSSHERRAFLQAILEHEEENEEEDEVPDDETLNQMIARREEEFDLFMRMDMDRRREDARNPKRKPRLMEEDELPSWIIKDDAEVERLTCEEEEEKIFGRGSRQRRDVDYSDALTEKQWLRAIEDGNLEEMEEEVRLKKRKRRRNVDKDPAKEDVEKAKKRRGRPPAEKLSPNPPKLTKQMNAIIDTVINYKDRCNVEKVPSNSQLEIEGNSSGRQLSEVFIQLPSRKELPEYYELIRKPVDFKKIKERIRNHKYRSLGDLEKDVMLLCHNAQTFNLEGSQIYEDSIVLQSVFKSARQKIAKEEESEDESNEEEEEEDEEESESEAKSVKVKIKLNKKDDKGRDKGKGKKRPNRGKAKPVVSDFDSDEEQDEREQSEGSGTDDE

As usually defined, the DC50 is the concentration at which degradation of the target reaches its halfway point. As usually defined, the Dmax is the greatest extent of degradation seen. With `CC(C)[C@@H](C(=O)N1C[C@H](O)C[C@H]1C(=O)N[C@@H](C)c1ccc(-c2ccnn2C)cc1)c1cc(N2CCC(CN3CCC(O[C@H]4C[C@H](Oc5cc(/C=C(\F)c6cc(-c7ccccc7O)nnc6N)ccn5)C4)CC3)CC2)no1` [Compound 51, (2S,4R)-4-hydroxy-N-[(1S)-1-[4-(1-methyl-1H-pyrazol-5-yl)phenyl]ethyl]-1-[(2R)-3-methyl-2-{3-[4-({4-[(1r,3r)-3-[(4-{2-[3-amino-6-(2-hydroxyphenyl)pyridazin-4-yl]-2-fluoroethenyl}pyridin-2-yl)oxy]cyclobutoxy]piperidin-1-yl}methyl)piperidin-1-yl]-1,2-oxazol-5-yl}butanoyl]pyrrolidine-2-carboxamide], the DC50 was under 2.5 nM and the Dmax was over 75%.

`CC(C)[C@@H](C(=O)N1C[C@H](O)C[C@H]1C(=O)N[C@@H](C)c1ccc(-c2ccnn2C)cc1)c1cc(N2CCC(CN3CCC(Oc4cc(/C=C(\F)c5cc(-c6ccccc6O)nnc5N)ccn4)CC3)CC2)no1` [Compound 52, (2S,4R)-1-[(2R)-2-{3-[4-({4-[(4-{2-[3-amino-6-(2-hydroxyphenyl)pyridazin-4-yl]-2-fluoroethenyl}pyridin-2-yl)oxy]piperidin-1-yl}methyl)piperidin-1-yl]-1,2-oxazol-5-yl}-3-methylbutanoyl]-4-hydroxy-N-[(1S)-1-[4-(1-methyl-1H-pyrazol-5-yl)phenyl]ethyl]pyrrolidine-2-carboxamide]: the DC50 is under 2.5 nM and the Dmax was over 75%.

For the molecule `Cc1ncsc1-c1ccc([C@H](C)NC(=O)[C@@H]2C[C@@H](O)CN2C(=O)[C@@H](c2cc(N3CCC(CN4CCC(O[C@H]5C[C@H](N6CC(F)(F)OC7(CCN(c8cc(-c9ccccc9O)nnc8N)CC7)C6)C5)CC4)CC3)no2)C(C)C)cc1` [Compound 55, (2S,4R)-4-hydroxy-N-[(1S)-1-[4-(4-methyl-1,3-thiazol-5-yl)phenyl]ethyl]-1-[(2R)-3-methyl-2-{3-[4-({4-[(1r,3r)-3-{9-[3-amino-6-(2-hydroxyphenyl)pyridazin-4-yl]-2,2-difluoro-1-oxa-4,9-diazaspiro[5.5]undecan-4-yl}cyclobutoxy]piperidin-1-yl}methyl)piperidin-1-yl]-1,2-oxazol-5-yl}butanoyl]pyrrolidine-2-carboxamide], the DC50 was under 2.5 nM and the Dmax was over 75%.

With `Cc1ncsc1-c1ccc([C@H](C)NC(=O)[C@@H]2C[C@@H](O)CN2C(=O)[C@@H](c2cc(N3CCC(OC4CCN(C[C@H]5C[C@H](N6CCOC7(CCN(c8cc(-c9ccccc9O)nnc8N)CC7)C6)C5)CC4)CC3)no2)C(C)C)cc1` [Compound 56, (2S,4R)-4-hydroxy-N-[(1S)-1-[4-(4-methyl-1,3-thiazol-5-yl)phenyl]ethyl]-1-[(2R)-3-methyl-2-(3-{4-[(1-{[(1r,3r)-3-{9-[3-amino-6-(2-hydroxyphenyl)pyridazin-4-yl]-1-oxa-4,9-diazaspiro[5.5]undecan-4-yl}cyclobutyl]methyl}piperidin-4-yl)oxy]piperidin-1-yl}-1,2-oxazol-5-yl)butanoyl]pyrrolidine-2-carboxamide], the DC50 was under 2.5 nM and the Dmax was over 75%.

Regarding `Cc1ncsc1-c1ccc([C@H](C)NC(=O)[C@@H]2C[C@@H](O)CN2C(=O)[C@@H](c2cc(N3CCC(CN4CCC(O[C@H]5C[C@H](N6CCN(CC7(O)CCN(c8cc(-c9ccccc9O)nnc8N)CC7)CC6)C5)CC4)CC3)no2)C(C)C)cc1` [Compound 57, (2S,4R)-4-hydroxy-N-[(1S)-1-[4-(4-methyl-1,3-thiazol-5-yl)phenyl]ethyl]-1-[(2R)-3-methyl-2-{3-[4-({4-[(1r,3r)-3-[4-({1-[3-amino-6-(2-hydroxyphenyl)pyridazin-4-yl]-4-hydroxypiperidin-4-yl}methyl)piperazin-1-yl]cyclobutoxy]piperidin-1-yl}methyl)piperidin-1-yl]-1,2-oxazol-5-yl}butanoyl]pyrrolidine-2-carboxamide], the DC50 was under 2.5 nM and the Dmax is over 75%.

As for `Cc1ncsc1-c1ccc([C@H](C)NC(=O)[C@@H]2C[C@@H](O)CN2C(=O)[C@@H](c2cc(N3CCC(CN4CCC5(CC4)CC(N4CCC(C(=O)N6C7CCC6CN(c6cc(-c8ccccc8O)nnc6N)C7)CC4)C5)CC3)no2)C(C)C)cc1` [Compound 58, (2S,4R)-1-[(2R)-2-[3-(4-{[2-(4-{3-[3-amino-6-(2-hydroxyphenyl)pyridazin-4-yl]-3,8-diazabicyclo[3.2.1]octane-8-carbonyl}piperidin-1-yl)-7-azaspiro[3.5]nonan-7-yl]methyl}piperidin-1-yl)-1,2-oxazol-5-yl]-3-methylbutanoyl]-4-hydroxy-N-[(1S)-1-[4-(4-methyl-1,3-thiazol-5-yl)phenyl]ethyl]pyrrolidine-2-carboxamide], the DC50 was under 2.5 nM and the Dmax is over 75%.

On to `Cc1ncsc1-c1ccc([C@H](C)NC(=O)[C@@H]2C[C@@H](O)CN2C(=O)[C@@H](c2cc(N3CCC(CN4CC[C@@H](Oc5cc(N6C7CCC6CN(c6cc(-c8ccccc8O)nnc6N)C7)ccn5)[C@H](F)C4)CC3)no2)C(C)C)cc1` [Compound 59, (2S,4R)-1-[(2R)-2-[3-(4-{[(3R,4R)-4-[(4-{3-[3-amino-6-(2-hydroxyphenyl)pyridazin-4-yl]-3,8-diazabicyclo[3.2.1]octan-8-yl}pyridin-2-yl)oxy]-3-fluoropiperidin-1-yl]methyl}piperidin-1-yl)-1,2-oxazol-5-yl]-3-methylbutanoyl]-4-hydroxy-N-[(1S)-1-[4-(4-methyl-1,3-thiazol-5-yl)phenyl]ethyl]pyrrolidine-2-carboxamide], for which the DC50 fell in the range of 10 to 30 nM and the Dmax is over 75%.

In the case of `Cc1ncsc1-c1ccc([C@H](C)NC(=O)[C@@H]2C[C@@H](O)CN2C(=O)[C@@H](c2cc(N3CCC(CN4CC[C@H](Oc5cc(N6C7CCC6CN(c6cc(-c8ccccc8O)nnc6N)C7)ccn5)[C@@H](F)C4)CC3)no2)C(C)C)cc1` [Compound 60, (2S,4R)-1-[(2R)-2-[3-(4-{[(3S,4S)-4-[(4-{3-[3-amino-6-(2-hydroxyphenyl)pyridazin-4-yl]-3,8-diazabicyclo[3.2.1]octan-8-yl}pyridin-2-yl)oxy]-3-fluoropiperidin-1-yl]methyl}piperidin-1-yl)-1,2-oxazol-5-yl]-3-methylbutanoyl]-4-hydroxy-N-[(1S)-1-[4-(4-methyl-1,3-thiazol-5-yl)phenyl]ethyl]pyrrolidine-2-carboxamide], the DC50 was under 2.5 nM and the Dmax was over 75%.

For `Cc1ncsc1-c1ccc([C@H](C)NC(=O)[C@@H]2C[C@@H](O)CN2C(=O)[C@@H](c2cc(N3CCC(CN4CCC5(CC4)CC(N4CCC[C@](O)(CN6C7CCC6CN(c6cc(-c8ccccc8O)nnc6N)C7)C4)C5)CC3)no2)C(C)C)cc1` [Compound 61, (2S,4R)-1-[(2R)-2-{3-[4-({2-[(3R)-3-({3-[3-amino-6-(2-hydroxyphenyl)pyridazin-4-yl]-3,8-diazabicyclo[3.2.1]octan-8-yl}methyl)-3-hydroxypiperidin-1-yl]-7-azaspiro[3.5]nonan-7-yl}methyl)piperidin-1-yl]-1,2-oxazol-5-yl}-3-methylbutanoyl]-4-hydroxy-N-[(1S)-1-[4-(4-methyl-1,3-thiazol-5-yl)phenyl]ethyl]pyrrolidine-2-carboxamide], the DC50 was under 2.5 nM and the Dmax is over 75%.

On to `Cc1ncsc1-c1ccc([C@H](C)NC(=O)[C@@H]2C[C@@H](O)CN2C(=O)[C@@H](c2cc(N3CCC(CN4CCC5(CC4)CC(N4CCO[C@@H](C(=O)N6C7CCC6CN(c6cc(-c8ccccc8O)nnc6N)C7)C4)C5)CC3)no2)C(C)C)cc1` [Compound 62, (2S,4R)-1-[(2R)-2-{3-[4-({2-[(2R)-2-{3-[3-amino-6-(2-hydroxyphenyl)pyridazin-4-yl]-3,8-diazabicyclo[3.2.1]octane-8-carbonyl}morpholin-4-yl]-7-azaspiro[3.5]nonan-7-yl}methyl)piperidin-1-yl]-1,2-oxazol-5-yl}-3-methylbutanoyl]-4-hydroxy-N-[(1S)-1-[4-(4-methyl-1,3-thiazol-5-yl)phenyl]ethyl]pyrrolidine-2-carboxamide], for which the DC50 was under 2.5 nM and the Dmax is over 75%.

Turning to `Cc1ncsc1-c1ccc([C@H](C)NC(=O)[C@@H]2C[C@@H](O)CN2C(=O)[C@@H](c2cc(N3CCC(CN4CCC5(CC4)CC(n4cc(C#Cc6cc(-c7ccccc7O)nnc6N)cn4)C5)CC3)no2)C(C)C)cc1` [Compound 63, (2S,4R)-1-[(2R)-2-[3-(4-{[2-(4-{2-[3-amino-6-(2-hydroxyphenyl)pyridazin-4-yl]ethynyl}-1H-pyrazol-1-yl)-7-azaspiro[3.5]nonan-7-yl]methyl}piperidin-1-yl)-1,2-oxazol-5-yl]-3-methylbutanoyl]-4-hydroxy-N-[(1S)-1-[4-(4-methyl-1,3-thiazol-5-yl)phenyl]ethyl]pyrrolidine-2-carboxamide], the 50% degradation concentration (DC50) is under 2.5 nM and the Dmax is over 75%.

For `Cc1ncsc1-c1ccc([C@H](C)NC(=O)[C@@H]2C[C@@H](O)CN2C(=O)[C@@H](c2cc(OCCN3CCC(OC(=O)N4CCN(c5cc(-c6ccccc6O)nnc5N)CC4)CC3)no2)C(C)C)cc1` [Compound 64, 1-[2-({5-[(2R)-1-[(2S,4R)-4-hydroxy-2-{[(1S)-1-[4-(4-methyl-1,3-thiazol-5-yl)phenyl]ethyl]carbamoyl}pyrrolidin-1-yl]-3-methyl-1-oxobutan-2-yl]-1,2-oxazol-3-yl}oxy)ethyl]piperidin-4-yl 4-[3-amino-6-(2-hydroxyphenyl)pyridazin-4-yl]piperazine-1-carboxylate], the DC50 lay within 2.5 to 10 nM and the Dmax is over 75%.
